Source: patent US5939385A, “Transglutaminase cross-linkable polypeptides and methods relating thereto” (ZymoGenetics, Inc., priority 1995, dated 1999)
No end group written: not given here.

Target: T1, recombinant Factor XIII (rFXIIIa) (Homo sapiens, UniProt P00488)
T1 construct: made in house
T1 sequence (P00488 39-732 limits assumed): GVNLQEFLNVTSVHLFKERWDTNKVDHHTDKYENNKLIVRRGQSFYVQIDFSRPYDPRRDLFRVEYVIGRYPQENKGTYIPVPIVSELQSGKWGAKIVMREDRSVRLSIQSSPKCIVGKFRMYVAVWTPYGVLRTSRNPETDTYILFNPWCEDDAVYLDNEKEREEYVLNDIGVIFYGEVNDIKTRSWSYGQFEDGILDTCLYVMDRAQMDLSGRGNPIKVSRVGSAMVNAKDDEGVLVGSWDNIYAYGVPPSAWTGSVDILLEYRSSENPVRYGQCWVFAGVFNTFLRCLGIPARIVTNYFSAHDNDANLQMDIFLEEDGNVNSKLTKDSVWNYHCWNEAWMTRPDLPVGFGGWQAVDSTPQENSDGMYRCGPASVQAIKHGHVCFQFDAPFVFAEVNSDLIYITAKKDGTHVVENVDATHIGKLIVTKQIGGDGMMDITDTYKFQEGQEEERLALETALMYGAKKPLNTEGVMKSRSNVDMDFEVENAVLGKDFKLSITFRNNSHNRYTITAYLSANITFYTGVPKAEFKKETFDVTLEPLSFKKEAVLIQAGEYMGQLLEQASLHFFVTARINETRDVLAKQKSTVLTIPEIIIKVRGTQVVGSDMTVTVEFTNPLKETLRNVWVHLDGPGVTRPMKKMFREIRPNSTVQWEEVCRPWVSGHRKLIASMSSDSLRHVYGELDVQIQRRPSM
Test: Factor XIII cross-linking assay of test polypeptide substrates (HPLC area % vs time)
Format: biochemical
Settings: for Monomer Consumption d[S]/dt (rate of substrate utilization) / Crosslinking d(2[S-])/dt (rate of monomer incorporation into dimers) / Hydrolysis d[-NH3]/dt (hydrolysis = deamidation): initial rate, 2mM substrate, 40 ug/ml rFXIIIa (preactivated), 2.0 U/ml Thrombin, 2.5 mM CaCl2, pH 7.4; for Monomer Consumption d[S]/dt (rate of substrate utilization): 125 mM NaCl, 50 mM TrisHCl; for Hydrolysis %: share of hydrolysis (deamidation) relative to hydrolysis plus crosslinking, same reaction conditions
Experimental: Polypeptides are screened for the ability to form transglutaminase-catalyzed cross-links using a cross-linking assay as described in more detail below. […] Each reaction receives 50 mM CaCl2 to a final concentration of 2.5 mM. A negative control for each test substrate is also prepared in which the reaction lacks a transglutaminase (e.g., Factor XIII). A positive control of the fibrinogen polypeptide (The-Ile-Gly-Glu-Gly-Gln-Gln-His-His-Leu-[…]-Gln-Ala-Gly-Asp-Val) is used for each set of reactions. The reactions are initiated by the addition of 40 μg/ml of transglutaminase (e.g., recombinant Factor XIII) followed by 0.1 unit of bovine thrombin (Enzyme Research Laboratories, Inc., South Bend, Ind.) to each solution, except the negative controls. The reactions are incubated in a 37° C. water bath. A time course of 10 μl samples are taken from each reaction at 0 minutes, 30 minutes, 60 minutes, 120 minutes and overnight. The reactions are stopped by boiling for one minute. After the reactions are terminated, each sample is diluted to 50 μl with 40 μl of TBS buffer (120 mM NaCl, 50 mM Tris (pH 7.6)) and the samples are prepared for HPLC analysis.
Each sample is chromatographed on a C-18 reverse phase HPLC column (Vydac, Hesperia, Calif. or the like) using a gradient of 0-40% B in 30 minutes (Solvent A: 0.05% trifluoroacetic acid (TFA) in water and Solvent B: 0.045% TFA in 80% acetonitrile, 20% water) on a Hewlett Packard 1090 Series II HPLC or the like. The signal is detected at a wavelength of 215 nm. The area % of each reaction product is collected and plotted versus time to determine the rates of polypeptide utilization dimer formation and multimer formation. A deamidation ratio is determined by dividing the deamidation rate by the dimerization rate.
The ability of the test polypeptides to form Factor XIII-induced multimers, and the susceptibility of the polypeptides to deamidation were assessed using the method described in detail below.
Approximately 0.5 mg of lyophilized polypeptide was dissolved in 50 mM Tris, 125 mM NaCl (pH 7.6) to give a final concentration of 2 mM by weight. […] Each test polypeptide solution received 50 mM CaCl2 to a final concentration of 2.5 mM. For each reaction, a negative control lacking Factor XIII was included. A positive control of the fibrinogen polypeptide Thr-Ile-Gly-Glu-Gly-Gln-Gln-His-His-Leu-Gly-Gly-Ala-Lys-Gln-Ala-Gly-Asp-Val was used for each set of reactions. The reactions were initiated by the addition of 40 μg/ml of recombinant Factor XIII followed by 0.1 unit of bovine thrombin (Enzyme Research Laboratories, Inc.) to each solution, except the negative controls. The reactions were incubated in a 37° C. water bath. Samples of 10 μl were taken from each reaction at 0 minutes, 30 minutes, 60 minutes, 120 minutes and overnight. The reactions were stopped by boiling for one minutes. The samples were diluted to 50 μl TBS buffer (120 mM NaCl, 50 mM Tris (pH 7.6)), and the samples were prepared for HPLC analysis.
Each reaction was chromatographed on a C-18 reverse phase HPLC column (Vydac, Hesperia, Calif., or the like) using a gradient of 0-40% B in 30 minutes (solvent A: 0.05% TFA in water and Solvent B: 0.045% TFA in 80% acetonitrile/20% water) on a Hewlett Packard 1090 Series II HPLC. The signal was detected at a wavelength of 215 nm. The area % of each reaction product was collected and plotted versus time to determine the rates of polypeptide utilization and dimer formation. A deamidation ratio was determined by dividing the deamidation rate by the dimerization rate. […] The abbreviations used in Table 1 are as follows: d[S]/dt indicates the rate of substrate utilization, d[S2 ]/dt indicates the rate of dimer formation and (-NH2 /S2) indicates the relative rates of deamidation to dimerization. The initial rates were normalized to that of the fibrinogen polypeptide Thr-Ile-Gly-Glu-Gly-Gln-Gln-His-His-Leu-Gly-Gly-Ala-Lys-Gln-Ala-Gly-Asp-Val. […]

Row | Sequence | Monomer Consumption d[S]/dt (rate of substrate utilization) | Crosslinking d(2[S-])/dt (rate of monomer incorporation into dimers) | Hydrolysis d[-NH3]/dt (hydrolysis = deamidation) | Hydrolysis % [%]
1 | TIGEGQHHLGAKQAGDV [TIGEGQ-- HHL-- GAKQAGDV] | -8.4 uM (monomer)/min | 3.6 uM (monomer)/min | 5.4 uM (monomer)/min | 60
2 | TIGEGQHHLGAKQAGDV [TIGEGQ-- HHLG-- AKQAGDV] | -7.0 uM (monomer)/min | 4.0 uM (monomer)/min | 3.0 uM (monomer)/min | 43
3 | TIGEGQHHLGGAKAGDV [TIGEGQ-- HHLGGAK-- AGDV] | -10.0 uM (monomer)/min | 8.8 uM (monomer)/min | 1.4 uM (monomer)/min | 14
4 | TIGEGQHHLGGAKQAGDV [TIGEGQ-- HHLGGAKQAGDV] | -12.8 uM (monomer)/min | 11.4 uM (monomer)/min | 0.6 uM (monomer)/min | 5
5 | TIGEGQQHHLGGAKQAGDV [TIGEGQQHHLGGAKQAGDV, Thr-Ile-Gly-Glu-Gly-Gln-Gln-His-His-Leu-Gly-Gly-Ala-Lys-Gln-Ala-Gly-Asp-Val, reference compound] | -20.0 uM (monomer)/min | 16.4 uM (monomer)/min | 5.2 uM (monomer)/min | 24
6 | VGGQHHLGGAKQVPG [VGGQ-- HHLGGAKQVPG] | 11.0 uM (monomer)/min | 11.0 uM (monomer)/min | 0.0 uM (monomer)/min | 0
7 | VGQHHLGGAKVPG [VGQ-- HHLGGAKVPG] | -18.0 uM (monomer)/min | 16.2 uM (monomer)/min | 0.0 uM (monomer)/min | 0
8 | VPGVGGQHHLGGAKQVPGVG [VPGVGGQ-- HHLGGAKQVPGVG] | -12.8 uM (monomer)/min | 11.8 uM (monomer)/min | 0.0 uM (monomer)/min | 0
9 | VPGVGLSQSKVGVPGVG [VPGVGLSQSKVGVPGVG] | -32.0 uM (monomer)/min | 15.0 uM (monomer)/min | 12.5 uM (monomer)/min | 45
10 | VPGVGQHHLGGAKVPGVG [VPGVGQ-- HHLGGAKVPGVG] | -20.8 uM (monomer)/min | 15.8 uM (monomer)/min | 1.8 uM (monomer)/min | 10
